From ChEMBL document CHEMBL3526097, “Preclinical disposition of GDC-0973 and prospective and retrospective analysis of human dose and efficacy predictions” (Drug Metab Dispos, 2012)
pIC50: −log10 of the molar value.

Tests used:
[1] = Oral bioavailability in Sprague-Dawley rat at 3 mg/kg by LC-MS/MS analysis; assay type: ADME, organism-based; conditions: in vivo
[2] = Plasma clearance in Beagle dog at 3 mg/kg, iv by LC-MS/MS analysis; assay type: ADME, organism-based, Canis lupus familiaris; set-up: dose 3 mg/kg, route intravenous
Canis familiaris = test: AUC (infinity) in Beagle dog at 3 mg/kg, iv by LC-MS/MS analysis; assay type: ADME, organism-based, Canis lupus familiaris, Plasma; set-up: dose 3 mg/kg, route intravenous, time infinity; conditions: in vivo
[3] = Terminal half life in Beagle dog at 3 mg/kg, iv by LC-MS/MS analysis; assay type: ADME, organism-based, Canis lupus familiaris; set-up: dose 3 mg/kg, route intravenous; conditions: in vivo, read-out: beta t1/2 (converted)
[4] = Volume of distribution at steady state in Beagle dog at 3 mg/kg, iv by LC-MS/MS analysis; assay type: ADME, organism-based, Canis lupus familiaris; set-up: dose 3 mg/kg, route intravenous; conditions: in vivo, read-out: Vdss
[5] = Tmax in Beagle dog at 3 mg/kg, po by LC-MS/MS analysis; assay type: ADME, organism-based, Canis lupus familiaris; set-up: dose 3 mg/kg, route oral; conditions: in vivo
[6] = Oral bioavailability in Beagle dog at 3 mg/kg by LC-MS/MS analysis; assay type: ADME, organism-based, Canis lupus familiaris; conditions: in vivo
Cynomolgus monkey = test: AUC (infinity) in cynomolgus monkey at 3 mg/kg, iv by LC-MS/MS analysis; assay type: ADME, organism-based, Macaca fascicularis, Plasma; set-up: time infinity, dose 3 mg/kg, route intravenous; conditions: in vivo
[7] = Terminal half life in cynomolgus monkey at 3 mg/kg, iv by LC-MS/MS analysis; assay type: ADME, organism-based, Macaca fascicularis; set-up: dose 3 mg/kg, route intravenous; conditions: in vivo, read-out: beta t1/2 (converted)
[8] = Volume of distribution at steady state in cynomolgus monkey at 3 mg/kg, iv by LC-MS/MS analysis; assay type: ADME, organism-based, Macaca fascicularis; set-up: dose 3 mg/kg, route intravenous; conditions: in vivo, read-out: Vdss
[9] = AUC (infinity) in cynomolgus monkey at 3 mg/kg, po by LC-MS/MS analysis; assay type: ADME, organism-based, Macaca fascicularis; set-up: time infinity, dose 3 mg/kg, route oral; conditions: plasma
[10] = Cmax in cynomolgus monkey at 3 mg/kg, po by LC-MS/MS analysis; assay type: ADME, organism-based, Macaca fascicularis; set-up: dose 3 mg/kg, route oral; conditions: in vivo
[11] = Tmax in cynomolgus monkey at 3 mg/kg, po by LC-MS/MS analysis; assay type: ADME, organism-based, Macaca fascicularis; set-up: dose 3 mg/kg, route oral; conditions: in vivo
[12] = Oral bioavailability in cynomolgus monkey at 3 mg/kg by LC-MS/MS analysis; assay type: ADME, organism-based, Macaca fascicularis; conditions: in vivo
[13] = Fraction unbound in mouse brain; assay type: ADME, tissue-based
Brain [14] = test: Unbound AUC in mouse brain; assay type: ADME, tissue-based; conditions: in vivo
Brain [15] = test: Unbound concentration in mouse brain at 3 mg/kg after 2 hrs; assay type: ADME, organism-based; set-up: dose 3 mg/kg; conditions: in vivo
Plasma = test: Fraction unbound in mouse plasma at 3 mg/kg after 2 hrs; assay type: ADME, organism-based; set-up: dose 3 mg/kg; conditions: in vivo
[16] = Ratio of unbound drug level in brain to plasma in mouse at 3 mg/kg after 2 hrs; assay type: ADME, organism-based; set-up: dose 3 mg/kg; conditions: read-out: BPR
[17] = Ratio of drug level in brain to plasma in mouse at 3 mg/kg after 2 hrs; assay type: ADME, organism-based; set-up: dose 3 mg/kg; conditions: read-out: BPR
[18] = Drug uptake in tumor of mouse xenografted with human COLO205 cells at 3 mg/kg after 2 hrs; assay type: ADME, organism-based, Neoplasm, COLO 205; set-up: dose 3 mg/kg; conditions: read-out: Drug uptake
[19] = Ratio of drug level in tumor to plasma in mouse xenografted with human COLO205 cells at 3 mg/kg after 2 hrs; assay type: ADME, organism-based, COLO 205; set-up: dose 3 mg/kg
COLO 205 = test: Antitumor activity against human COLO205 cells expressing B-raf V600E mutant xenografted in po dosed mouse assessed as inhibition of tumor growth; assay type: functional, organism-based
[20] = target: Dual specificity mitogen-activated protein kinase kinase 1 (Homo sapiens, UniProt Q02750); test: Inhibition of MEK1 (unknown origin)
Dual specificity mitogen-activated protein kinase kinase 1, sequence (Q02750 whole entry): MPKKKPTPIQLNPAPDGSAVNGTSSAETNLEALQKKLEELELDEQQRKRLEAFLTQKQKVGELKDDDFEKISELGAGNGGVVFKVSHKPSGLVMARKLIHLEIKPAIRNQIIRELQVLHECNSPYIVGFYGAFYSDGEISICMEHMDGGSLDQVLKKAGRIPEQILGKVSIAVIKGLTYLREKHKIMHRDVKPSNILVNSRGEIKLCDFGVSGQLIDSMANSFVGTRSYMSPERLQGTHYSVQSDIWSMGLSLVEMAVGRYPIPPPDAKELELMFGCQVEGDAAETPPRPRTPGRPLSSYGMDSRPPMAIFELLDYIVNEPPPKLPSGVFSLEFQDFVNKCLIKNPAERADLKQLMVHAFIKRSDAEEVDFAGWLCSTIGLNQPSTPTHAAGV

[21] = Antiproliferative activity against human COLO205 cells expressing B-raf V600E mutant; assay type: functional, cell-based; conditions: COLO 205
Mus musculus = test: AUC (infinity) in nu/nu mouse at 1 mg/kg, iv by LC-MS/MS analysis; assay type: ADME, organism-based, Plasma; set-up: time infinity, dose 1 mg/kg, route intravenous; conditions: in vivo
[22] = Terminal half life in nu/nu mouse at 1 mg/kg, iv by LC-MS/MS analysis; assay type: ADME, organism-based; set-up: dose 1 mg/kg, route intravenous; conditions: in vivo, read-out: beta t1/2 (converted)
[23] = Volume of distribution at steady state in nu/nu mouse at 1 mg/kg, iv by LC-MS/MS analysis; assay type: ADME, organism-based; set-up: dose 1 mg/kg, route intravenous; conditions: in vivo, read-out: Vdss
[24] = AUC (infinity) in nu/nu mouse at 3 mg/kg, po by LC-MS/MS analysis; assay type: ADME, organism-based; set-up: time infinity, dose 3 mg/kg, route oral; conditions: plasma
[25] = Cmax in nu/nu mouse at 3 mg/kg, po by LC-MS/MS analysis; assay type: ADME, organism-based; set-up: dose 3 mg/kg, route oral; conditions: in vivo
[26] = Tmax in nu/nu mouse at 3 mg/kg, po by LC-MS/MS analysis; assay type: ADME, organism-based; set-up: dose 3 mg/kg, route oral; conditions: in vivo
[27] = Oral bioavailability in nu/nu mouse at 3 mg/kg by LC-MS/MS analysis; assay type: ADME, organism-based; conditions: in vivo
[28] = Plasma clearance in Sprague-Dawley rat at 3 mg/kg, iv by LC-MS/MS analysis; assay type: ADME, organism-based; set-up: dose 3 mg/kg, route intravenous
Rattus norvegicus = test: AUC (infinity) in Sprague-Dawley rat at 3 mg/kg, iv by LC-MS/MS analysis; assay type: ADME, organism-based, Plasma; set-up: dose 3 mg/kg, route intravenous, time infinity; conditions: in vivo
[29] = Apparent permeability from apical to basolateral side of MDCK1 cells at 10 uM after 60 mins; assay type: ADME, cell-based, Canis lupus familiaris; conditions: dog, MDCK
[30] = Apparent permeability from basolateral to apical side of MDCK1 cells at 10 uM after 60 mins; assay type: ADME, cell-based, Canis lupus familiaris; conditions: dog, MDCK
[31] = Efflux ratio of permeability from […] side in MDCK1 cells at 10 uM after 60 mins; assay type: ADME, cell-based, Canis lupus familiaris; conditions: dog, MDCK
MDR1 [32] = test: Apparent permeability from basolateral to apical side of MDCK1 cells expressing MDR1 at 25 uM after 2 hrs by LC-MS/MS analysis; assay type: ADME, cell-based, Canis lupus familiaris; conditions: dog, MDCK-MDR1
MDR1 [33] = test: Efflux ratio of permeability from […] side in MDCK1 cells expressing MDR1 at 25 uM after 2 hrs by LC-MS/MS analysis; assay type: ADME, cell-based, Canis lupus familiaris; conditions: dog, MDCK-MDR1
[34] = target: ATP-dependent translocase ABCB1 (Homo sapiens, UniProt P08183); test: Inhibition of MDR1 (unknown origin) at 25 uM; assay type: ADME
ATP-dependent translocase ABCB1, sequence (P08183 whole entry): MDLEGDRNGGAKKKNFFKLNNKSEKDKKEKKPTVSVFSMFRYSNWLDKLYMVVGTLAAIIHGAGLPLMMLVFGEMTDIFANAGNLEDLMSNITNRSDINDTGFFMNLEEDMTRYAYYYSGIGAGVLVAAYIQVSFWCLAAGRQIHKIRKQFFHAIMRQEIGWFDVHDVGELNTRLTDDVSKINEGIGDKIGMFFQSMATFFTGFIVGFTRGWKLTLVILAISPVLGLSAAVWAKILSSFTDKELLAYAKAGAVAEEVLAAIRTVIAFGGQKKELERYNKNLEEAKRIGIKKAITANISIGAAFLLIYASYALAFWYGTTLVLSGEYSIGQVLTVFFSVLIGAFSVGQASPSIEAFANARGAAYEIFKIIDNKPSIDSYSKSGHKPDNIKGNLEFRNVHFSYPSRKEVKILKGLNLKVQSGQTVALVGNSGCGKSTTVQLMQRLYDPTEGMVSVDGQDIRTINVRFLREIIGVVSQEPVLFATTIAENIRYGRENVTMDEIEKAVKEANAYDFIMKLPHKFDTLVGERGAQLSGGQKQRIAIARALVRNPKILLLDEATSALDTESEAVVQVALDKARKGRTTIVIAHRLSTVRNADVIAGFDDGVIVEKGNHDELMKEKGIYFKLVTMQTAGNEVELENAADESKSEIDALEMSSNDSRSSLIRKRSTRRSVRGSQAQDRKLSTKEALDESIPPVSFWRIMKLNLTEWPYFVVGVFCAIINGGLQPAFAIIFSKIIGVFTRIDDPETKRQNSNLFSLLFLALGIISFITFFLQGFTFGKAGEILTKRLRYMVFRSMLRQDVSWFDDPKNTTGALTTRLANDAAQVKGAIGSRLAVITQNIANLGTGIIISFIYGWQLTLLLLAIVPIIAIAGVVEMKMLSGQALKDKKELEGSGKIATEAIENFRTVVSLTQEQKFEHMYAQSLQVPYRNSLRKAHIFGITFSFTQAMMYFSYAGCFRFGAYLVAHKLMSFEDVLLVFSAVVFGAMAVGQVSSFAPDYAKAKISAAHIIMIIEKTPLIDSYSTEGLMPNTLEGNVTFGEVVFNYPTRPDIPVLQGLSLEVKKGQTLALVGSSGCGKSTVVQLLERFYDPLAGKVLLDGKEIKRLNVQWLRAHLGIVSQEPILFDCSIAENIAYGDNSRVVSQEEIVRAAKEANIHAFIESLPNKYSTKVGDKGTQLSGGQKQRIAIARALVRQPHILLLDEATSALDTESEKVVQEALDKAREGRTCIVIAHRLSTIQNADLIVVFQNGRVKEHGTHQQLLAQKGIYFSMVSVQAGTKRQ

[35] = Terminal half life in Sprague-Dawley rat at 3 mg/kg, iv by LC-MS/MS analysis; assay type: ADME, organism-based; set-up: dose 3 mg/kg, route intravenous; conditions: in vivo, read-out: beta t1/2 (converted)
[36] = Volume of distribution at steady state in Sprague-Dawley rat at 3 mg/kg, iv by LC-MS/MS analysis; assay type: ADME, organism-based; set-up: dose 3 mg/kg, route intravenous; conditions: in vivo, read-out: Vdss
[37] = AUC (infinity) in Sprague-Dawley rat at 3 mg/kg, po by LC-MS/MS analysis; assay type: ADME, organism-based; set-up: time infinity, dose 3 mg/kg, route oral; conditions: plasma
[38] = Cmax in Sprague-Dawley rat at 3 mg/kg, po by LC-MS/MS analysis; assay type: ADME, organism-based; set-up: dose 3 mg/kg, route oral; conditions: in vivo
[39] = Tmax in Sprague-Dawley rat at 3 mg/kg, po by LC-MS/MS analysis; assay type: ADME, organism-based; set-up: dose 3 mg/kg, route oral; conditions: in vivo

O=C(c1ccc(F)c(F)c1Nc1ccc(I)cc1F)N1CC(O)([C@@H]2CCCCN2)C1 [COBIMETINIB]
bioavailability [1]: 69%
clearance [2]: 5.53 mL/min/kg
AUC (Canis familiaris): 17100 ng·h/mL
half-life [3]: 9.19 h
Vd [4]: 3.99 L/kg
Tmax [5]: 2.67 h
bioavailability [6]: 69.1%
AUC (Cynomolgus monkey): 3340 ng·h/mL
half-life [7]: 10.3 h
Vd [8]: 29.6 L/kg
AUC(0-inf) [9]: 640 ng·h/mL
Cmax [10]: 50 ng/mL
Tmax [11]: 2 h
bioavailability [12]: 19.6%
fraction unbound [13]: 0.0012
fAUC (Brain [14]): 3 nM·h
Concentration (Brain [15]): 0.1 nM
Cp(f) (Plasma): 5.7 nM
Kp uu at 2 h [16]: 0.018
Kp at 2 h [17]: 0.5
concentration at 2 h [18]: 1560 nM
Kp at 2 h [19]: 9
TGI (COLO 205): Dose-dependent effect
pIC50 [20]: 8.38
pIC50 [21]: 8.10
AUC (Mus musculus): 935 ng·h/mL
half-life [22]: 3.92 h
Vd [23]: 9.4 L/kg
AUC(0-inf) [24]: 1510 ng·h/mL
Cmax [25]: 184 ng/mL
Tmax [26]: 0.25 h
bioavailability [27]: 53.9%
clearance [28]: 37.8 mL/min/kg
AUC (Rattus norvegicus): 2320 ng·h/mL
Papp A→B at 1 h, 10 µM [29]: 1.39 ×10⁻⁶ cm/s
Papp B→A at 1 h, 10 µM [30]: 4 ×10⁻⁶ cm/s
efflux ratio at 1 h, 10 µM [31]: 3
Papp B→A at 2 h, 25 µM (MDR1 [32]): 35.4 ×10⁻⁶ cm/s
efflux ratio at 2 h, 25 µM (MDR1 [33]): 40
inhibition (INH) [34]: Not Active
half-life [35]: 13.3 h
Vd [36]: 34.6 L/kg
AUC(0-inf) [37]: 1590 ng·h/mL
Cmax [38]: 193 ng/mL
Tmax [39]: 3.5 h
